The text below walks through data of patent publication US7785567B2, “Growth hormone-releasing peptides in the treatment or prevention of atherosclerosis and hypercholesterolemia” (Valorisation-Recherche, Société en Commandite, priority 2002, dated 2010).

Where a SMILES comes first, the peptide text is derived from it. Primed or numbered codes have the meaning given here. Where no end group is shown, it is not given here. [ ]: non-standard residue; d: D form. dTrp(2-Me) = Cc1[nH]c2ccccc2c1C[C@@H](N)C(=O)O; Haic′ = not defined here

Assay [1] concerns ApoE-null mice. The assay can be described thus: Fatty streak lesion area in aortas, en face oil red-O staining, 12 weeks treatment (Example 1). Format: in vivo, mouse. To be noted: HFHC diet, HEX 100 μg/kg per day or EP80317 300 μg/kg per day s.c. for 12 weeks from 6 weeks old, vs 0.9% NaCl. How it is done:
GHRPs prevent fatty streak formation in ApoE deficient mice fed a HFHC diet for 12 weeks (from 6 weeks old). Effects of HEX (100 μg/kg per day) and of EP80317 (300 μg/kg per day), administered subcutaneously for 12 weeks (from 6 weeks old).
To determine whether GHRPs reduce atherosclerosis development, we have used the ApoE deficient mice strain and their C57BL/6 control littermates to assess the effects of prolonged (12 weeks) GHRPs treatment on fatty streak formation in mice fed a an enriched lipid diet. The surface area of oil red-O staining aortas of mice has been used as an index of plaque development and changes in the plasma levels of lipids as an index of hypolipemic effect. […]
(§1) The animals were housed in cages (less than 5 per cage) and fed a normal chow diet and water ad libitum. […] Four days before sacrifice, 6 mice from Groups 1 to 3 were injected i.p. with oxLDL (minimally oxidized, 3-6 mmol/mg protein, as determined by Thiobarbituric Acid Reactive Substances (TBARS) assay). […] The entire aorta from the heart, extending 5-10 mm after bifurcation of the iliac arteries and including the subclavian right and left common carotid arteries, was removed, dissected, and evaluated for lesion development by en face oil red-O staining and morphometry of scanned images using the software Scion Image (Scion Corp., Fredrick, Md.). […]

Assay [2] deals with ApoE-null mice. The assay can be described thus: Plasma lipid analysis (enzymatic kits) after 12 weeks treatment. Conditions: HFHC diet; for Increase in HDL cholesterol compared to controls: HEX 100 μg/kg or EP80317 300 μg/kg per day for 12 weeks, tended to be increased. The class given is in vivo, mouse. As for the experimental part: A: Effects of 12 weeks treatment (from 6 weeks old) with 0.9% NaCl (open bar), HEX, 100 μg/kg per day (solid bar) or EP80317 300 μg/kg per day (cross-hatched bar) on total plasma cholesterol in mice fed a HFHC or a normal diet.
The animals were housed in cages (less than 5 per cage) and fed a normal chow diet and water ad libitum. At 6 weeks of age, male C57BL/6, CD36 and ApoE-null mice were assigned to 1 of 3 groups (n=12 mice per group): Group 1 received daily injections of 0.9% NaCl (1 μL/g); Group 2, HEX (100 μg/kg, 1 μL/g), and Group 3, EP80317 (300 μg/kg, 1 μL/g). All three groups of mice were fed a HFHC diet (purchased from Research Diet Inc. (D.12108)) from 6 weeks of age. Daily s.c. treatment with HEX, EP80317 or vehicle was begun at 6 weeks old and continued for 12 weeks. Four days before sacrifice, 6 mice from Groups 1 to 3 were injected i.p. with oxLDL (minimally oxidized, 3-6 mmol/mg protein, as determined by Thiobarbituric Acid Reactive Substances (TBARS) assay). At 18 weeks old, mice were fasted overnight, anaesthetised with ketamine-xylazine (90:10 mg/kg) two hours after the s.c. administration of the morning dose of the drug under study. Blood (1 mL) was taken from the heart and put into EDTA pre-coated microcontainers (BD, Franklin Lakes, N.J., USA). Mice were killed, the hearts were perfused with 20 mL 0.9% NaCl. The peritoneal cavity was washed with 3 mL of heparinised saline (10 units/mL) in mice injected i.p. with oxLDL. A hemacytometer and stained cytospin preparation (Diff Quick stain, Dade Diagnostics of P.R. Inc., Aguada, PR) were used to determine the total and differential leukocyte numbers, respectively, for the peritoneal cavity lavage fluid. The entire aorta from the heart, extending 5-10 mm after bifurcation of the iliac arteries and including the subclavian right and left common carotid arteries, was removed, dissected, and evaluated for lesion development by en face oil red-O staining and morphometry of scanned images using the software Scion Image (Scion Corp., Fredrick, Md.). The animal study protocol was reviewed and approved by the institutional Animal Ethics Committee of the Université de Montréal and conducted in accordance with the Canadian Council on Animal Care guidelines for use of experimental animals.
Total plasma cholesterol, triacylglycerol and HDL cholesterol were determined using enzymatic kits (Sigma Chemicals). Appropriate standards and controls were included in each assay.

The subject of another assay is CD36. In words: Western blot of oxLDL-elicited peritoneal macrophages from treated ApoE-null mice. The class given is in vivo, mouse. To be noted: HFHC diet, HEX 100 μg/kg or EP80317 300 μg/kg per day, 12 weeks, normalised to β-actin, vehicle set at 100%. The text has this:
GHRPs modulate CD36 and ABCA1 protein levels in peritoneal macrophages from ApoE-null mice fed a HFHC diet for 12 weeks. […] Relative protein levels for A, CD36 and B, ABCA1 are normalised to β-actin and expressed as % of change compared to vehicle (0.9% NaCl)-treated controls set at 100%. Data represent the mean of two independent experiments.

Assay [3] deals with human monocytic THP-1 cells. In words: Lipid accumulation in PMA-differentiated THP-1 macrophages (Oil Red O extraction, 510 nm). The class given is cell-based. Conditions: 10 μM for 24 hrs. As for the experimental part: A: GHRPs reduce lipid accumulation in differentiated human macrophages. To induce lipid accumulation, human monocytic THP-1 cells were differentiated to macrophages with 5 ng/mL PMA for 48 hrs and then treated as indicated for 24 hrs with 10 μM HEX or EP80317 in the presence of phorbol myristate acetate (PMA). Non-differentiated cells (no PMA) were also analysed. Lipid accumulation was quantified by photometry at 510 nm following extraction of Oil Red O from stained cells. Lipid staining was reduced by 35% and 28% in macrophages treated with HEX and EP80317, respectively, compared to untreated cells.

The subject of assay [4] is ApoE-null mice. The assay can be described thus: Fatty streak lesion area in aortas, treatment begun after start of HFHC diet (Example 2). Format: in vivo, mouse. Conditions: HFHC diet from 6 weeks. As for the experimental part: The effects of EP80317 (300 μg/kg per day) administered subcutaneously for 8 weeks (from 10 to 18 weeks of age), 6 weeks (from 12 to 18 weeks of age) and 4 weeks (from 14 to 18 weeks of age) were documented, as well as the effect of hexarelin (100 μg/kg per day) given for 4 weeks (from 14 to 18 weeks of age).
To determine whether GHRPs are able to delay the development or to modulate the regression of fatty streaks, we have used the ApoE-deficient mice to assess the effect of the duration of the treatment with GHRPs on the progression of fatty streaks after the initiation of atherosclerotic lesions induced by a HFHC diet starting at 6 weeks of age.
Male ApoE-null mice (n=35) were housed in cages (less than 5 per cage). After weaning until 4 weeks of age, the mice were fed a normal chow diet and water ad libitum. Starting at 6 weeks of age, the mice were fed a HFHC diet (purchased from Research Diet Inc. (D.12108)). The animals were segregated in 3 groups. • Group 1 (n=10) was subdivided into 2 subgroups, receiving, from 10 to 18 weeks of age (i.e. for 8 weeks), daily injections of EP80317 (300 μg/kg) (n=5) or 0.9% NaCl (n=5). • Group 2 (n=10) was subdivided into 2 subgroups receiving, from 12 to 18 weeks of age (i.e. for 6 weeks), daily injections of EP80317 (300 μg/kg/per day) (n=5) or 0.9% NaCl (n=5). • Group 3 (n=15) was subdivided into 3 subgroups, receiving, from 14 to 18 weeks of age (i.e. for 4 weeks), EP80317 (300 μg/kg/per day) (n=5), or hexarelin (100 μg/kg per day) (n=5) or 0.9% NaCl (n=5).
Mice were euthanised at 18 weeks of age. The entire aortas from the heart extending 5-10 mm after bifurcation of the iliac arteries and including the subclavian right and left common carotids were removed, dissected and evaluated for lesion development by en face oil red-O staining and morphometry of scanned images using the software Scion image (Scion Corp., Frederick, Md.).

A further assay concerns CD36-null mice. The assay can be described thus: oxLDL-induced accumulation of macrophages in the peritoneal cavity. Format: in vivo, mouse. To be noted: HFHC diet, EP80317 300 μg/kg per day, 12 weeks. As for the experimental part: (§2) A: Effects of 12 weeks treatment (from 6 weeks old) with 0.9% NaCl (open bar), HEX, 100 μg/kg per day (solid bar) or EP80317, 300 μg/kg per day (cross-hatched bar) on oxLDL (250 μg i.p., <6 nmol MDA/mg lipoprotein)-induced accumulation of macrophages in the peritoneal cavity in wild type C57BL/6 mice and CD36-null mice fed a HFHC diet. Peritoneal macrophage accumulation in wild type mice tended to be reduced by 37%.
as §1, with “libitum. At 6 weeks of age, male C57BL/6, CD36 and ApoE-null mice were assigned to 1 of 3 groups (n=12 mice per group): Group 1 received daily injections of 0.9% NaCl (1 μL/g); Group 2, HEX (100 μg/kg, 1 μL/g), and Group 3, EP80317 (300 μg/kg, 1 μL/g).” for “libitum.”

The test system of another assay is wild type C57BL/6 mice. The description is as above. To be noted: HFHC diet, EP80317 300 μg/kg per day, 12 weeks, oxLDL 250 μg i.p. The class given is in vivo, mouse. As for the experimental part: as §2
as §1, with “libitum. At 6 weeks of age, male C57BL/6, CD36 and ApoE-null mice were assigned to 1 of 3 groups (n=12 mice per group): Group 1 received daily injections of 0.9% NaCl (1 μL/g); Group 2, HEX (100 μg/kg, 1 μL/g), and Group 3, EP80317 (300 μg/kg, 1 μL/g).” for “libitum.”

Assay [5] concerns ApoE-null mice. The assay is described as above. Format: in vivo, mouse. Conditions: normal chow diet, EP80317 300 μg/kg per day, 12 weeks. How it is done:
B: Effects of 12 weeks treatment (from 6 weeks old) with 0.9% NaCl (open bar), HEX, 100 μg/kg per day (solid bar) or EP80317, 300 μg/kg per day (cross-hatched bar) on oxLDL-induced accumulation of macrophages in the peritoneal cavity in ApoE-null mice fed either a HFHC or a normal diet. Peritoneal macrophage accumulation was reduced by 39% in mice fed a normal diet.
as §1, with “libitum. At 6 weeks of age, male C57BL/6, CD36 and ApoE-null mice were assigned to 1 of 3 groups (n=12 mice per group): Group 1 received daily injections of 0.9% NaCl (1 μL/g); Group 2, HEX (100 μg/kg, 1 μL/g), and Group 3, EP80317 (300 μg/kg, 1 μL/g). All three groups of mice were fed a HFHC diet (purchased from Research Diet Inc. (D.12108)) from 6 weeks of age.” for “libitum.”

Assay [6] relates to peritoneal macrophages isolated from ApoE-null mice. In words: Lipid accumulation in peritoneal macrophages isolated from treated ApoE-null mice (Oil Red O extraction). The class given is in vivo, mouse. Conditions: HFHC diet from 13 to 18 weeks old, EP80317 300 μg/kg s.c. from 13 to 18 weeks old, vs not treated. How it is done: B: GHRPs reduced lipid accumulation in peritoneal macrophages isolated from ApoE-null mice fed a HFHC diet from 13 to 18 weeks old. EP80317 (300 μg/kg) s.c. has been administered from 13 to 18 weeks old. Lipid staining (assessed by Oil Red O extraction) was reduced by 57% (compared to peritoneal macrophages isolated from ApoE-null mice fed a HFHC diet from 13 weeks old, but not treated with EP80317).

For assay [7] the following is noted: cited from earlier work.
Where [8] appears, read: treatment for 4 weeks (14 to 18 weeks of age), EP80317 300 μg/kg or hexarelin 100 μg/kg per day, not significant.
The mark [9] stands for this setting: EP80317 300 μg/kg daily for 12 weeks from 6 weeks old.

Consider `Cc1[nH]c2ccccc2c1C[C@@H](NC(=O)[C@@H](N)Cc1cnc[nH]1)C(=O)N[C@@H](C)C(=O)N[C@@H](Cc1c[nH]c2ccccc12)C(=O)N[C@H](Cc1ccccc1)C(=O)N[C@@H](CCCCN)C(N)=O` [HEX, His-(D) -(Me)Trp-Ala-Trp-(D)-Phe-Lys-NH2, reference compound] (H-H[dTrp(2-Me)]AW[dF]K-NH2), for which, in the assay with ApoE-null mice [1], the “Reduction of lesion area (% of total aorta area) compared to controls” value was 28%. For the same compound, the “Increase in HDL cholesterol compared to controls” value in the assay on ApoE-null mice [2] came out at 65%. The “CD36 protein expression in peritoneal macrophages, % of controls” value in the assay with CD36 is reported as 57 % of controls. The “Reduction of lipid staining compared to untreated cells” value in [3] came to 35%. The “Reduction of lesion area (% total aorta area) compared to controls” value with ApoE-null mice [4] (setting [8]) amounted to 8%.

Turning to “Haic-(D) -(Me)Trp-(D)-Lys-Trp-(D)-Phe-Lys-NH2 ([Haic′]W[dK]W[dF]K-NH2; not fully specified (residue 2)) [EP80317]”, the “Reduction of lesion area (% of total aorta area) compared to controls” value in the assay on ApoE-null mice [1] is on record as 51%. Moreover, the “Decrease in non-HDL plasma cholesterol compared to controls” value in the assay with ApoE-null mice [2] (setting [9]) is 31%. The “Decrease in total plasma cholesterol compared to controls” value with ApoE-null mice [2] (setting [9]) is listed as 30%. Moreover, in the assay with ApoE-null mice [2], the “Increase in HDL cholesterol compared to controls” value stood at 73%. Further, the “oxLDL-induced peritoneal macrophage accumulation” value in the assay on CD36-null mice is “did not modulate macrophage accumulation”. Moreover, the entries for the “Reduction of oxLDL-induced peritoneal macrophage accumulation” value with wild type C57BL/6 mice and in the assay on ApoE-null mice [5] were 37% and 39%, respectively. Besides, the “CD36 protein expression in peritoneal macrophages, % of controls” value with CD36 is on record as 27 % of controls. Moreover, the “Reduction of lipid staining compared to untreated cells” value in assay [3] is on record as 28%. In [6], the “Reduction of lipid staining in peritoneal macrophages (Oil Red O extraction)” value is 57%. Besides, the “Reduction of lesion area (% total aorta area) compared to controls” value with ApoE-null mice [4] (setting [8]) is reported as 36%; in the assay with ApoE-null mice [4] (treatment for 6 weeks (12 to 18 weeks of age), EP80317 300 μg/kg per day s.c.) it was 31.3%; in the assay with ApoE-null mice [4] (treatment for 8 weeks (10 to 18 weeks of age), EP80317 300 μg/kg per day s.c.), 39.2%. Further, the “GH-secreting activity in vivo” value in assay [7] is on record as “devoid of GH-secreting activity in vivo”.
